Experimental data reported in patent publication US8772307B2, “Substituted spiro compounds and their use for producing pain-relief medicaments” (Gruenenthal GmbH, priority 2005, dated 2014).

What was measured:
[1] = target: T1, vanilloid receptor (VR1) (Homo sapiens, UniProt Q8NER1); experiment: Functional testing on vanilloid receptor (VR1): FLIPR Ca2+ inflow assay in CHO K1 cells stably transfected with the VR1 gene; assay type: cell-based; settings: for inhibition at 10 µM: CHO-K1, inhibition compared to 10 μM CP (capsaicin); for activation at 10 µM: CHO-K1, stimulation compared to 10 μM CP (capsaicin); for IC50: capsaicin (CAP) stimulus, average
T1 construct: expressed in transfected cells; host or cells: CHO K1 cells (ECACC), stably transfected
T1 sequence (Q8NER1 whole entry): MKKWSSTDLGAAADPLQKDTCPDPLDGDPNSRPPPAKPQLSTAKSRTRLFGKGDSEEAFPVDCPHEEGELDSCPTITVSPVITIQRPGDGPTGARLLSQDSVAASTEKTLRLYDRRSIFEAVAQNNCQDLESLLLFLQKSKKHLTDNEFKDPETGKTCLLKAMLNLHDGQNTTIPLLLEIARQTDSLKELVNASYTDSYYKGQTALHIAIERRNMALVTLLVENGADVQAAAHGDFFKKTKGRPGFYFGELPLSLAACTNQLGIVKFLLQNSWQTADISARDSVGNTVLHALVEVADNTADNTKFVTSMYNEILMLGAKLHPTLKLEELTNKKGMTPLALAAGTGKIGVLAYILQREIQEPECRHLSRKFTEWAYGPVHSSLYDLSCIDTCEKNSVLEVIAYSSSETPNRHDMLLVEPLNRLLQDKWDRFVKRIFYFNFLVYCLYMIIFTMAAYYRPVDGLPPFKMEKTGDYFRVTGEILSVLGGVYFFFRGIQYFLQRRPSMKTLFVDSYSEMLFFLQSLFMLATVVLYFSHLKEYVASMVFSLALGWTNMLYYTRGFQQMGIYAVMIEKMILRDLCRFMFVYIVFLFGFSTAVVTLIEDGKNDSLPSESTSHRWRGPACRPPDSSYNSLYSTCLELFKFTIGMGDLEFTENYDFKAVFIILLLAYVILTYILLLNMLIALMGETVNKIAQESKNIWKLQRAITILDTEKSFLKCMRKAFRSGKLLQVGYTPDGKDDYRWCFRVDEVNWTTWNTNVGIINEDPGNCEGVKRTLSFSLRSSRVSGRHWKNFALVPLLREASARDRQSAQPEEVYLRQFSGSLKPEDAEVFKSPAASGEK
Source text: II. Functional Testing Carried Out on the Vanilloid Receptor (VR1)
The agonistic or antagonistic effect of the substances to be tested can also be determined on the vanilloid receptor (VR1) using the following assay. According to this assay, the Ca^2+ inflow is quantified through the channel using a Ca^2+-sensitive dye (type Fluo-4, Molecular Probes Europe BV, Leiden, Netherlands) in a fluorescent imaging plate reader (FLIPR, Molecular Devices, Sunnyvale, USA).
Chinese hamster ovary cells (CHO K1 cells, European Collection of Cell Cultures (ECACC) United Kingdom) were stably transfected with the VR1 gene. For functional testing, these cells were plated out on poly-D-lysine-coated black 96 well plates having a clear base (BD Biosciences, Heidelberg, Germany) at a density of 25,000 cells/well. The cells were incubated overnight at 37° C. and 5% CO2 in a culture medium (Ham's F12 nutrient mixture, 10% by volume of FCS (foetal calf serum), 18 μg/ml L-proline). The next day the cells were incubated with Fluo-4 (Fluo-4 2 μM, 0.01% by volume of Pluronic F127, Molecular Probes in HBSS (Hank's buffered saline solution), Gibco Invitrogen GmbH, Karlsruhe, Germany) for 30 minutes at 37° C. Subsequently, the plates were washed 3 times with HBSS buffer and after further incubation for 15 minutes at room temperature used for Ca^2+ measurement in a FLIPR assay. The Ca^2+-dependent fluorescence was measured before and after the addition of the substances to be tested (λex wavelength=488 nm, λem=540 nm). Quantification was carried out by measuring the highest fluorescence intensity (FC, Fluorescence Counts) over time.
The FLIPR protocol consists of 2 substance additions. First the compounds to be tested (10 μM) were pipetted onto the cells and the Ca^2+ inflow was compared with the control (capsaicin 10 μM) (% activation based on the Ca^2+ signal after the addition of 10 μM capsaicin). After 5 minutes' incubation, 100 nM of capsaicin were administered and the Ca^2+ inflow was also determined.
Desensitising agonists and antagonists led to suppression of the Ca^2+ inflow. The % inhibition was calculated compared to the maximum achievable inhibition with 10 μM of capsaicin.

[2] = target: T2, rat-species vanilloid receptor 1 (VR1/TRPV1) (Rattus norvegicus, UniProt O35433); experiment: Functional testing on vanilloid receptor 1 (VR1/TRPV1): FLIPR Ca2+ inflow assay in rat dorsal root ganglia cells (% activation / % inhibition vs capsaicin); assay type: cell-based; settings: for inhibition at 10 µM: inhibition compared to 10 μM CP (capsaicin); for activation at 10 µM: stimulation compared to 10 μM CP (capsaicin); for IC50: capsaicin (CAP) stimulus, average
T2 construct: endogenous in cells; host or cells: primary cells dissociated from rat dorsal root ganglia (DRG)
T2 sequence (O35433 whole entry): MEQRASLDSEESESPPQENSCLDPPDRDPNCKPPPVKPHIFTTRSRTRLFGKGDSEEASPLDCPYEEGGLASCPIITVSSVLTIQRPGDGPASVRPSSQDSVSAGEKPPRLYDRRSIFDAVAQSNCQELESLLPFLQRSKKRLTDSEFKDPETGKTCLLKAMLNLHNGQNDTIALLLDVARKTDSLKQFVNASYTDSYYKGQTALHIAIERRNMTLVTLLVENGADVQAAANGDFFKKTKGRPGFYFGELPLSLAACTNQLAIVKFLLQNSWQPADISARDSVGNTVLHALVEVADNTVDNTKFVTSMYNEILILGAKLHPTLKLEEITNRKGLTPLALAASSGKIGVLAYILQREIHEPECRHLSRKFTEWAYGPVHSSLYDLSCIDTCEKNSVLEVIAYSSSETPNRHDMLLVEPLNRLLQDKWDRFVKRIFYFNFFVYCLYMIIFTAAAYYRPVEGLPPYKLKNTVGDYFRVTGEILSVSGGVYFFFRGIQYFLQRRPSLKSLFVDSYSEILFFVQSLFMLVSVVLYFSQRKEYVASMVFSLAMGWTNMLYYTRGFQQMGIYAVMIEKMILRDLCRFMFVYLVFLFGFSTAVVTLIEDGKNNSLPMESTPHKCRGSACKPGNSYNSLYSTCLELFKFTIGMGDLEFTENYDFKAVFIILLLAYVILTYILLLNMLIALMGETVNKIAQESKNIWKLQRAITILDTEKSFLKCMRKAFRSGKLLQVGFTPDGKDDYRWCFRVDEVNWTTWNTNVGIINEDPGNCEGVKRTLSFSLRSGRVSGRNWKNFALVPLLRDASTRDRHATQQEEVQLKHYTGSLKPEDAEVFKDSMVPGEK
Description: Preference may also be given to substituted spiro compounds according to the invention of general formula I which in a FLIPR assay in a concentration of 10 μM display inhibition of the Ca^2+ ion inflow in dorsal root ganglia of rats of at least 30%, preferably of at least 40%, particularly preferably of at least 50%, most particularly preferably of at least 70%, even more preferably of at least 90%, compared to the maximum achievable inhibition of the Ca^2+ ion inflow with capsaicin in a concentration of 10 μM.
In the FLIPR assay, the Ca^2+ inflow is quantified using a Ca^2+-sensitive dye (type Fluo-4, Molecular Probes Europe BV, Leiden, Netherlands) in a fluorescent imaging plate reader (FLIPR, Molecular Devices, Sunnyvale, USA), as described hereinafter.
I. Functional Testing Carried Out on the Vanilloid Receptor 1 (VR1/TRPV1 Receptor)
The agonistic or antagonistic effect of the substances to be tested can be determined on the rat-species vanilloid receptor 1 (VR1/TRPV1) using the following assay. According to this assay, the Ca^2+ inflow is quantified through the receptor channel using a Ca^2+-sensitive dye (type Fluo-4, Molecular Probes Europe BV, Leiden, Netherlands) in a fluorescent imaging plate reader (FLIPR, Molecular Devices, Sunnyvale, USA).
Complete medium: 50 mL HAMS F12 nutrient mixture (Gibco Invitrogen GmbH, Karlsruhe, Germany) with
10% by volume of FCS (foetal calf serum, Gibco Invitrogen GmbH, Karlsruhe, Germany, […]);
2 mM L-glutamine (Sigma, Munich, Germany);
1% by weight of AA solution (antibiotic/antimyotic solution, PAA, Pasching, Austria)
and 25 ng/ml NGF medium (2.5 S, Gibco Invitrogen GmbH, Karlsruhe, Germany)
Cell culture plate: Poly-D-lysine-coated, black 96 well plates having a clear base (96 well black/clear plate, BD Biosciences, Heidelberg, Germany) were additionally coated with laminin (Gibco Invitrogen GmbH, Karlsruhe, Germany), the laminin being diluted with PBS (Ca—Mg-free PBS, Gibco Invitrogen GmbH, Karlsruhe, Germany) to a concentration of 100 μg/mL. Aliquots having a laminin concentration of 100 μg/mL were removed and stored at −20° C. The aliquots were diluted with PBS in a ratio of 1:10 to 10 μg/mL laminin and in each case 50 μL of the solution were pipetted into a recess in the cell culture plate. The cell culture plates were incubated for at least two hours at 37° C., the excess solution was removed by suction-filtration and the recesses were each washed twice with PBS. The coated cell culture plates were stored with excess PBS which was not removed until just before the feeding of the cells.
Preparation of the Cells:
The vertebral column was removed from decapitated rats and placed immediately into cold HBSS buffer (Hank's buffered saline solution, Gibco Invitrogen GmbH, Karlsruhe, Germany), i.e. buffer located in an ice bath, mixed with 1% by volume (percent by volume) of an AA solution (antibiotic/antimyotic solution, PAA, Pasching, Austria). The vertebral column was cut longitudinally and removed together with fasciae from the vertebral canal. Subsequently, the dorsal root ganglia (DRG) were removed and again stored in cold HBSS buffer mixed with 1% by volume of an AA solution. The DRG, from which all blood remnants and spinal nerves had been removed, were transferred in each case to 500 μL of cold type 2 collagenase (PAA, Pasching, Austria) and incubated for 35 minutes at 37° C. After the addition of 2.5% by volume of trypsin (PAA, Pasching, Austria), incubation was continued for 10 minutes at 37° C. After complete incubation, the enzyme solution was carefully pipetted off and 500 μL of complete medium were added to each of the remaining DRG. The DRG were in each case suspended several times, drawn through cannulae No. 1, No. 12 and No. 16 using a syringe and transferred to a 50 mL Falcon tube which was filled up to 15 mL with complete medium. […]

Structure (SMILES) | inhibition at 10 µM [1] | activation at 10 µM [1] | inhibition at 10 µM [2] | activation at 10 µM [2] | IC50 [1] | IC50 [2]
CC(C)(C)c1ccc(C(/C=C/c2ccccc2)=C/C(=O)N2CCC3(CC2)CC(c2ccccc2)=NO3)cc1 [Compound 337, (2E,4E)-3-(4-tert-butylphenyl)-5-phenyl-1-(3-phenyl-1-oxa-2,8-diazaspiro[4.5]dec-2-en-8-yl)penta-2,4-dien-1-one] | 16% | -1% | 95% | 1% |  | 
COc1cccc(C2=NOC3(CCN(C(=O)Nc4cccc(F)c4)CC3)C2)c1 [Compound 174, 3-(3-methoxyphenyl)-1-oxa-2,8-diazaspiro[4.5]dec-2-ene-8-carboxylic acid-(3-fluorophenyl)amide] | -25% | 5.9% | 47.8% | -0.28% |  | 
CC(C)c1ccc(NC(=O)N2CCC3(CC2)CC(c2ccc(Cl)cc2)=NO3)cc1 [Compound 79, 3-(4-chlorophenyl)-1-oxa-2,8-diazaspiro[4.5]dec-2-ene-8-carboxylic acid-(4-isopropylphenyl)amide] | -17.6% | -0.35% | 46.5% | 0.38% |  | 
CCc1ccccc1NC(=O)N1CCC2(CC1)CC(c1cccc(OC)c1)=NO2 [Compound 156, 3-(3-methoxyphenyl)-1-oxa-2,8-diazaspiro[4.5]dec-2-ene-8-carboxylic acid-(2-ethylphenyl)amide] | -7.89% | 0.69% | 48.2% | 0.2% |  | 
COc1cccc(C2=NOC3(CCN(C(=O)Nc4ccc(OC(F)(F)F)cc4)CC3)C2)c1 [Compound 244, 3-(3-methoxyphenyl)-1-oxa-2,8-diazaspiro[4.5]dec-2-ene-8-carboxylic acid-(4-trifluoromethoxyphenyl)amide] | 3.09% | -0.28% | 89.1% | 9.79% |  | 
Cc1ccc(C2=NOC3(CCN(C(=O)Nc4ccc(C(C)C)cc4)CC3)C2)cc1 [Compound 81, 3-p-tolyl-1-oxa-2,8-diazaspiro[4.5]dec-2-ene-8-carboxylic acid-(4-isopropylphenyl)amide] | -2.79% | -0.35% | 58.8% | -0.47% |  | 
CC(C)(C)c1ccc(C=CC(=O)N2CCC3(CC2)CC(c2ccccc2)=NO3)cc1 [Compound 323, 3-(4-tert-butylphenyl)-1-(3-phenyl-1-oxa-2,8-diazaspiro[4.5]dec-2-en-8-yl)propenone] | 36% | 0% | 98% | 0% | 1440 nM | 181 nM
CC(C)c1ccc(C=CC(=O)N2CCC3(CC2)CC(c2ccccc2)=NO3)cc1 [Compound 325, 3-(4-isopropylphenyl)-1-(3-phenyl-1-oxa-2,8-diazaspiro[4.5]dec-2-en-8-yl)propenone] | 6% | 0% | 63% | -6% | 875 nM | 270 nM
COc1cccc(C2=NOC3(CCN(C(=O)Nc4ccc(C(F)(F)F)cc4)CC3)C2)c1 [Compound 210, 3-(3-methoxyphenyl)-1-oxa-2,8-diazaspiro[4.5]dec-2-ene-8-carboxylic acid-(4-trifluoromethylphenyl)amide] | 7.12% | -0.21% | 98% | 0.22% |  | 
FS(F)(F)(F)(F)c1ccc(NC(=S)N2CCC3(CC2)CC(c2ccccc2)=NO3)cc1 [Compound 330, 3-phenyl-1-oxa-2,8-diazaspiro[4.5]dec-2-ene-8-thiocarboxylic acid-(4-pentafluorosulphanylphenyl)amide] |  |  | 103% | 1% |  | 

Further lines, results first:

inhibition at 10 µM [1] | activation at 10 µM [1] | inhibition at 10 µM [2] | activation at 10 µM [2] | IC50 [1] | IC50 [2] | Structure (SMILES)
-12% | 1% | 100% | 5% |  |  | CC(C)(C)c1ccc(NC(=O)N2CCC3(CC2)CC(c2ccc(F)cc2)=NO3)cc1 [Compound 349, N-(4-tert-butylphenyl)-3-(4-fluorophenyl)-1-oxa-2,8-diazaspiro[4.5]dec-2-ene-8-carboxamide]
93% | 0% | 96% | -1% |  |  | CC1CN(C(=O)/C=C/c2ccc(C(F)(F)F)nc2N2CCCCC2)CCC12CC(c1ccccc1)=NO2 (stereo not shown) [Compound 367, (E)-1-(6-methyl-3-phenyl-1-oxa-2,8-diazaspiro[4.5]dec-2-en-8-yl)-3-(2-(piperidin-1-yl)-6-(trifluoromethyl)pyridin-3-yl)prop-2-en-1-one]
23% | 0% | 84% | 0% |  |  | CC(C)(C)c1ccc(/C=C/C(=O)N2CCC3(CC2)CC(c2cccc(F)c2)=NO3)cc1 [Compound 353, (E)-3-(4-tert-butylphenyl)-1-(3-(3-fluorophenyl)-1-oxa-2,8-diazaspiro[4.5]dec-2-en-8-yl)prop-2-en-1-one]
19% | -1% | 110% | 0% | 1070 nM | 175 nM | CC1CN(C(=O)Nc2ccc(C(C)(C)C)cc2)CCC12CC(c1ccccc1)=NO2 (stereo not shown) [Compound 369, N-(4-tert-butylphenyl)-6-methyl-3-phenyl-1-oxa-2,8-diazaspiro[4.5]dec-2-ene-8-carboxamide]
-3% | 2% | 95% | 7% |  |  | CC(C)(C)c1ccc(NC(=O)N2CCC3(CC2)CC(c2ccccc2F)=NO3)cc1 [Compound 352, N-(4-tert-butylphenyl)-3-(2-fluorophenyl)-1-oxa-2,8-diazaspiro[4.5]dec-2-ene-8-carboxamide]
